Converted amounts (≈) assume the structure as drawn. Where a SMILES comes first, the peptide text is derived from it. Bridges are numbered along the chain shown (N, C = ends). [ ]: non-standard residue; d: D form. The star is where a group is joined. ξ: configuration not given here. Octanoyl(7-Me) = CC(C)CCCCCC(=O)*; Hexanoyl(4ξ-Me) = CCC(C)CCC(=O)*; dOrn = NCCC[C@@H](N)C(=O)O; Orn = NCCC[C@H](N)C(=O)O; OAll = C=CCO*
Key:
E. coli ATCC 25922 = assay type: cell-based, Escherichia coli; details: for MIC (µg/mL) against E. coli (ATCC 25922): (Supplement 2); for Antibacterial activity (MIC) E. coli ATCC 25922: microbroth dilution per CLSI, MHB, 18 h at 37 °C, visual inspection, three technical replicates
Protocol: (§1) Linear laterocidine (LL-OH, 4) and linear brevicidine (LB-OH, 5) were first synthesized by Fmoc SPPS, starting from 2-chlorotrityl (2-CT) chloride resin. The antibacterial activity of these peptides was then compared to brevicidine (1) and laterocidine (2) using minimum inhibitory concentration (MIC)/microbroth dilution assays (Table 1). The MICs of all peptides were determined against a panel of Gram-negative and Gram-positive ESKAPE pathogens. Additionally, a strain of E. coli carrying the mcr-1 gene was included in the panel. The mcr-1 gene is a transferrable plasmid that confers resistance against colistin, a last-resort antibiotic for Gram-negative infections, by reducing the overall negative charge of lipopolysaccharide (LPS) through modification of lipid A with phosphoethanolamine. The propensity for cationic antibiotics to bind to the cell membrane is therefore reduced. This gene has been observed in more than 27 bacterial species over six continents.[26] The spread of the mcr-1 gene could render colistin ineffectual; therefore, novel antibacterials are urgently required to overcome this form of resistance.
(§2) All minimum inhibitory concentrations (MICs) were determined according to Clinical and Laboratory Standards Institute (CLSI) guidelines. Blood agar plates were inoculated with glycerol stocks of E. coli ATCC 25922, K. pneumoniae ATCC 13883, A. baumannii ATCC 17961, P. aeruginosa PAO1, and S. aureus USA300. The inoculated agar plates were then incubated for 16 h at 37 °C. Individually grown colonies were subsequently used to inoculate 5 mL aliquots of TSB that were then incubated at 37 °C with shaking at 220 rpm. E. coli 25922 MCR-1 glycerol stock was used to inoculate 5 mL of TSB supplemented with kanamycin that was then incubated for 16 h at 37 °C with shaking at 220 rpm. The next day the culture was diluted 100-fold in TSB supplemented with kanamycin and incubated at 37 °C with shaking at 220 rpm. In parallel, the lipopeptide antibiotics DMSO stocks to be assessed were serially diluted with MHB in polypropylene 96-well plates (50 μL in each well). Colistin sulfate stocks were dissolved in water before being diluted with MHB. Aliquots of the inoculated TSB were incubated until an OD600 of around 0.5 was reached. The bacterial suspensions were then diluted with MHB (2 × 10^5 CFU/mL) and added to the microplates containing the test compounds (50 μL to each well). The well plates were sealed with an adhesive membrane and after 18 h of incubation at 37 °C with shaking at 600 rpm, the wells were visually inspected for bacterial growth. MIC values reported are based on three technical replicates and defined as the lowest concentration of the compound that prevented visible growth of bacteria.

E. coli (MCR-1) = assay type: cell-based, Escherichia coli; details: microbroth dilution per CLSI, MHB, 18 h at 37 °C, visual inspection, three technical replicates, E. coli 25922 carrying mcr-1
Protocol: as §1, §2

S. aureus USA300 = assay type: cell-based, Staphylococcus aureus; details: microbroth dilution per CLSI, MHB, 18 h at 37 °C, visual inspection, three technical replicates
Protocol: as §1, §2

A. baumannii ATCC 17961 = assay type: cell-based, Acinetobacter baumannii; details: microbroth dilution per CLSI, MHB, 18 h at 37 °C, visual inspection, three technical replicates
Protocol: as §1, §2

P. aeruginosa PAO1 = assay type: cell-based, Pseudomonas aeruginosa; details: microbroth dilution per CLSI, MHB, 18 h at 37 °C, visual inspection, three technical replicates
Protocol: as §1, §2

K. pneumoniae ATCC 13883 = assay type: cell-based, Klebsiella pneumoniae; details: microbroth dilution per CLSI, MHB, 18 h at 37 °C, visual inspection, three technical replicates
Protocol: as §1, §2

| SMILES | MIC (µg/mL) against E. coli (ATCC 25922) (E. coli ATCC 25922) | Antibacterial activity (MIC) E. coli ATCC 25922 (E. coli ATCC 25922) | Antibacterial activity (MIC) E. coli (MCR-1) (E. coli (MCR-1)) | Antibacterial activity (MIC) S. aureus USA300 (S. aureus USA300) | Antibacterial activity (MIC) A. baumannii ATCC 17961 (A. baumannii ATCC 17961) | Antibacterial activity (MIC) P. aeruginosa PAO1 (P. aeruginosa PAO1) | Antibacterial activity (MIC) K. pneumoniae ATCC 13883 (K. pneumoniae ATCC 13883) |
| --- | --- | --- | --- | --- | --- | --- | --- |
| CCC(C)CCC(=O)N[C@H](CC(N)=O)C(=O)N[C@H](Cc1ccc(O)cc1)C(=O)N[C@H](Cc1c[nH]c2ccccc12)C(=O)N[C@H](CCCN)C(=O)N[C@@H](CCCN)C(=O)NCC(=O)N[C@H](CCCN)C(=O)N[C@@H](Cc1c[nH]c2ccccc12)C(=O)N[C@@H](CCC(N)=O)C(=O)N[C@H](C(=O)NCC(N)=O)[C@@H](C)CC (stereo partly drawn) [Δ12LB (Gln9)-NH2 (59)] ({Hexanoyl(4ξ-Me)}-[dN][dY][dW][dOrn][Orn]G[dOrn]WQIG-NH2) | 8 µg/mL (≈ 5.42 µM) | 8 µg/mL | 8 µg/mL | >32 µg/mL | 16 µg/mL | 2 µg/mL | 16 µg/mL |
| CC[C@H](C)[C@H](NC(=O)[C@@H](NC(=O)[C@H](Cc1c[nH]c2ccccc12)NC(=O)[C@@H](CCCN)NC(=O)CNC(=O)[C@H](C)NC(=O)[C@@H](CCCN)NC(=O)[C@@H](Cc1c[nH]c2ccccc12)NC(=O)[C@@H](Cc1ccc(O)cc1)NC(=O)[C@@H](CO)NC(=O)CCCCCC(C)C)[C@@H](C)O)C(=O)N[C@@H](CC(N)=O)C(=O)NCC(=O)NCC(N)=O [LL(Ala5)-NH2 (33)] ({Octanoyl(7-Me)}-[dS][dY][dW][dOrn]AG[dOrn]WTINGG-NH2) |  | 32 µg/mL | >32 µg/mL | >32 µg/mL | >32 µg/mL | 32 µg/mL | >32 µg/mL |
| CC[C@H](C)[C@H](NC(=O)[C@@H](NC(=O)[C@H](Cc1c[nH]c2ccccc12)NC(=O)[C@@H](CCCN)NC(=O)CNC(=O)[C@H](CCCN)NC(=O)[C@@H](C)NC(=O)[C@@H](Cc1c[nH]c2ccccc12)NC(=O)[C@@H](Cc1ccc(O)cc1)NC(=O)[C@@H](CO)NC(=O)CCCCCC(C)C)[C@@H](C)O)C(=O)N[C@@H](CC(N)=O)C(=O)NCC(=O)NCC(N)=O [LL(D-Ala4)-NH2 (32)] ({Octanoyl(7-Me)}-[dS][dY][dW][dA][Orn]G[dOrn]WTINGG-NH2) |  | >32 µg/mL | >32 µg/mL | >32 µg/mL | 32 µg/mL | >32 µg/mL | >32 µg/mL |
| CC[C@H](C)[C@@H]1NC(=O)[C@@H](NC(=O)[C@H](Cc2c[nH]c3ccccc23)NC(=O)[C@@H](CCCN)NC(=O)CNC(=O)[C@H](CCCN)NC(=O)[C@@H](CCCN)NC(=O)[C@@H](Cc2c[nH]c3ccccc23)NC(=O)[C@@H](Cc2ccc(O)cc2)NC(=O)[C@@H](CO)NC(=O)CCCCCC(C)C)[C@@H](C)OC(=O)CNC(=O)CNC(=O)[C@H](CC(N)=O)NC1=O [Lat (2), laterocidine] ({Octanoyl(7-Me)}-[dS][dY][dW][dOrn][Orn]G[dOrn]WTINGG; ester 9-C) |  | 2 µg/mL | 2 µg/mL | >32 µg/mL | 2 µg/mL | 4 µg/mL | 2 to 4 µg/mL |
| CC[C@H](C)[C@H](NC(=O)[C@@H](NC(=O)[C@H](Cc1c[nH]c2ccccc12)NC(=O)[C@@H](CCCN)NC(=O)CNC(=O)[C@H](CCCN)NC(=O)[C@@H](CCCN)NC(=O)[C@@H](Cc1c[nH]c2ccccc12)NC(=O)[C@@H](Cc1ccc(O)cc1)NC(=O)[C@@H](CO)NC(=O)CCCCCC(C)C)[C@@H](C)O)C(=O)N[C@@H](CC(N)=O)C(=O)NCC(=O)N[C@@H](C)C(N)=O [LL(Ala13)-NH2 (41)] ({Octanoyl(7-Me)}-[dS][dY][dW][dOrn][Orn]G[dOrn]WTINGA-NH2) | 4 to 8 µg/mL | 4 to 8 µg/mL | 8 µg/mL | >32 µg/mL | 8 µg/mL | 4 µg/mL | 8 µg/mL |
| CC[C@H](C)[C@H](NC(=O)[C@@H](NC(=O)[C@H](Cc1c[nH]c2ccccc12)NC(=O)[C@@H](CCCN)NC(=O)CNC(=O)[C@H](CCCN)NC(=O)[C@@H](CCCN)NC(=O)[C@@H](Cc1c[nH]c2ccccc12)NC(=O)[C@@H](Cc1ccc(O)cc1)NC(=O)[C@@H](CO)NC(=O)CCCCCC(C)C)[C@@H](C)O)C(=O)N[C@@H](CC(N)=O)C(=O)NCC(=O)NCC(=O)O [LL-OH (4)] ({Octanoyl(7-Me)}-[dS][dY][dW][dOrn][Orn]G[dOrn]WTINGG-OH) |  | 8 µg/mL | 16 µg/mL | >32 µg/mL | 16 µg/mL | 8 µg/mL | 8 to 16 µg/mL |
| CC[C@H](C)[C@H](NC(=O)[C@@H](NC(=O)[C@H](Cc1c[nH]c2ccccc12)NC(=O)[C@@H](CCCN)NC(=O)CNC(=O)[C@H](CCCN)NC(=O)[C@@H](CCCN)NC(=O)[C@@H](Cc1c[nH]c2ccccc12)NC(=O)[C@@H](Cc1ccc(O)cc1)NC(=O)[C@@H](CO)NC(=O)CCCCCC(C)C)[C@@H](C)O)C(=O)N[C@@H](CC(N)=O)C(N)=O [Δ12–13LL-NH2 (10)] ({Octanoyl(7-Me)}-[dS][dY][dW][dOrn][Orn]G[dOrn]WTIN-NH2) |  | 4 µg/mL | 8 µg/mL | >32 µg/mL | 4 µg/mL | 4 µg/mL | 8 to 16 µg/mL |
| C=CCOC(=O)CC[C@H](NC(=O)[C@H](Cc1c[nH]c2ccccc12)NC(=O)[C@@H](CCCN)NC(=O)CNC(=O)[C@H](CCCN)NC(=O)[C@@H](CCCN)NC(=O)[C@@H](Cc1c[nH]c2ccccc12)NC(=O)[C@@H](Cc1ccc(O)cc1)NC(=O)[C@@H](CO)NC(=O)CCCCCC(C)C)C(=O)N[C@H](C(=O)N[C@@H](CC(N)=O)C(=O)NCC(=O)NCC(N)=O)[C@@H](C)CC [LL(Glu[OAll]9)-NH2 (51)] ({Octanoyl(7-Me)}-[dS][dY][dW][dOrn][Orn]G[dOrn]WE(OAll)INGG-NH2) | 16 µg/mL (≈ 9.47 µM) | 16 µg/mL | 16 µg/mL | >32 µg/mL | 16 µg/mL | >32 µg/mL | >32 µg/mL |
| CC[C@H](C)[C@H](NC(=O)[C@@H](NC(=O)[C@H](Cc1c[nH]c2ccccc12)NC(=O)[C@@H](CCCN)NC(=O)CNC(=O)[C@H](CCCN)NC(=O)[C@@H](CCCN)NC(=O)[C@@H](Cc1c[nH]c2ccccc12)NC(=O)[C@@H](Cc1ccc(O)cc1)NC(=O)[C@@H](CO)NC(=O)CCCCCC(C)C)[C@@H](C)O)C(=O)N[C@@H](CC(N)=O)C(=O)N[C@@H](C)C(=O)NCC(N)=O [LL(Ala12)-NH2 (40)] ({Octanoyl(7-Me)}-[dS][dY][dW][dOrn][Orn]G[dOrn]WTINAG-NH2) |  | 8 µg/mL | 8 µg/mL | >32 µg/mL | 8 µg/mL | 8 µg/mL | 8 µg/mL |
